The numbers were not newly measured in PubChem BioAssay AID1259409 (Chemical Carcinogenesis Research Information System (CCRIS), 2018), which cites them from elsewhere.

In this data set the test system is rodent chemically induced tumor inhibition, incidence and multiplicity. The experiment in a line: CCRIS tumor inhibitor studies. Particulars: Carcinogen: 4-(METHYLNITROSAMINO)-1-(3-PYRIDYL)-1-BUTANONE, 64091-91-4, Dose [Inhibitor]: 0, Promoter: NONE USED.

Consider `S=C=NCCCCCCc1ccccc1`, for which the “tumour outcome (control, treated, inhibition, significance)” value is, setting by setting: (1 UMOL 1/D FOR 4 D ADMINISTERED PRIOR TO CARCINOGEN TREATMENT (STUDY DURATION: 116 D), Route [Inhibitor]: GAVAGE, Species: MOUSE, Strain/Sex: STRAIN A, Target Tissue: Type of Lesion: LUNG: ADENOMA, Dose [Carcinogen]: 10 UMOL ONCE 2 HR AFTER FINAL DOSE OF INHIBITOR) 100%, 0%, 100%, p<0.05; (5 UMOL 1/D FOR 4 D ADMINISTERED PRIOR TO CARCINOGEN TREATMENT (STUDY DURATION: 116 D), Route [Inhibitor]: GAVAGE, Species: MOUSE, Strain/Sex: STRAIN A, Target Tissue: Type of Lesion: LUNG: ADENOMA, Dose [Carcinogen]: 10 UMOL ONCE 2 HR AFTER FINAL DOSE OF INHIBITOR) 100%, 5%, 95%, p<0.05; (0.04 UMOL ONCE 2 HR PRIOR TO CARCINOGEN DOSE (STUDY DURATION: 16 WK), Route [Inhibitor]: GAVAGE, Species: MOUSE, Strain/Sex: STRAIN-A/FEMALE, Target Tissue: Type of Lesion: LUNG: ADENOMA, Dose [Carcinogen]: 10 UMOL IN 0.1 ML SALINE ONCE) 100%, 100%, 0%, not significant; (0.1 UMOL ONCE 2 HR PRIOR TO CARCINOGEN DOSE (STUDY DURATION: 16 WK), Route [Inhibitor]: GAVAGE, Species: MOUSE, Strain/Sex: STRAIN-A/FEMALE, Target Tissue: Type of Lesion: LUNG: ADENOMA, Dose [Carcinogen]: 10 UMOL IN 0.1 ML SALINE ONCE) 100%, 100%, 0%, not significant; (0.2 UMOL ONCE 2 HR PRIOR TO CARCINOGEN DOSE (STUDY DURATION: 16 WK), Route [Inhibitor]: GAVAGE, Species: MOUSE, Strain/Sex: STRAIN-A/FEMALE, Target Tissue: Type of Lesion: LUNG: ADENOMA, Dose [Carcinogen]: 10 UMOL IN 0.1 ML SALINE ONCE) 100%, 100%, 0%, not significant; (1 UMOL/G DIET FOR DURATION OF STUDY BEGINNING 1 WK PRIOR TO CARCINOGEN TREATMENT (STUDY DURATION: 112 WK), Route [Inhibitor]: ORAL, Species: RAT, Strain/Sex: F344/MALE, Target Tissue: Type of Lesion: HEMATOPOIETIC SYSTEM: LEUKEMIA OR LYMPHOMA, Dose [Carcinogen]: 2 PPM IN DRINKING WATER FOR 111 WK) 26/56 (46%), 11/57 (19%), 59%, p=0.002. Besides, the “tumour outcome (control, treated, inhibition, significance)” value is 2/55 (4%), 4/50 (8%), -100%, not significant (1 UMOL/G DIET FOR DURATION OF STUDY BEGINNING 1 WK PRIOR TO CARCINOGEN TREATMENT (STUDY DURATION: 112 WK), Route [Inhibitor]: ORAL, Species: RAT, Strain/Sex: F344/MALE, Target Tissue: Type of Lesion: LIVER: ADENOMA, Dose [Carcinogen]: 2 PPM IN DRINKING WATER FOR 111 WK); 3/55 (5%), 1/50 (2%), 60%, not significant (1 UMOL/G DIET FOR DURATION OF STUDY BEGINNING 1 WK PRIOR TO CARCINOGEN TREATMENT (STUDY DURATION: 112 WK), Route [Inhibitor]: ORAL, Species: RAT, Strain/Sex: F344/MALE, Target Tissue: Type of Lesion: LIVER: CARCINOMA, Dose [Carcinogen]: 2 PPM IN DRINKING WATER FOR 111 WK); 23/56 (41%), 9/57 (16%), 61%, p=0.003 (1 UMOL/G DIET FOR DURATION OF STUDY BEGINNING 1 WK PRIOR TO CARCINOGEN TREATMENT (STUDY DURATION: 112 WK), Route [Inhibitor]: ORAL, Species: RAT, Strain/Sex: F344/MALE, Target Tissue: Type of Lesion: LUNG: ADENOCARCINOMA, Dose [Carcinogen]: 2 PPM IN DRINKING WATER FOR 111 WK); 16/56 (29%), 6/57 (11%), 62%, p=0.015 (1 UMOL/G DIET FOR DURATION OF STUDY BEGINNING 1 WK PRIOR TO CARCINOGEN TREATMENT (STUDY DURATION: 112 WK), Route [Inhibitor]: ORAL, Species: RAT, Strain/Sex: F344/MALE, Target Tissue: Type of Lesion: LUNG: ADENOMA, Dose [Carcinogen]: 2 PPM IN DRINKING WATER FOR 111 WK); 1/48 (2%), 2/45 (4%), -100%, not significant (1 UMOL/G DIET FOR DURATION OF STUDY BEGINNING 1 WK PRIOR TO CARCINOGEN TREATMENT (STUDY DURATION: 112 WK), Route [Inhibitor]: ORAL, Species: RAT, Strain/Sex: F344/MALE, Target Tissue: Type of Lesion: NASAL CAVITY: PAPILLOMA OR CARCINOMA, Dose [Carcinogen]: 2 PPM IN DRINKING WATER FOR 111 WK).
